Data from patent publication US11319315B2, “Cyclohexyl acid triazole azoles as LPA antagonists” (BRISTOL-MYERS SQUIBB COMPANY, priority 2017, dated 2022).
Structures can show the parent of a compound that is named as a salt. Where two headings read alike, the source gives them in different places.

Target: T1, human LPA1 (Homo sapiens, UniProt Q92633)
T1 construct: expressed in transfected cells; host or cells: Chinese hamster ovary (CHO) cells
Assay: LPA1 functional antagonist assay (LPA-induced calcium flux in CHO cells overexpressing human LPA1)
Assay type: cell-based
Conditions: read-out: hLPA1 IC50
Method in brief: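 Calcium flux was triggered by 10 nM LPA after 20 min room-temperature compound pre-incubation (final 0.08 nM to 5 μM, 0.5% DMSO) in human LPA1-overexpressing CHO cells carrying calcium dye. Buffer: HBSS with Ca/Mg, 20 mM HEPES, 0.1% fatty-acid-free BSA; IC50s from 4-parameter logistic fits.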

[1] = inhibition of calcium flux induced by 10 nM LPA, CHO cells overexpressing human LPA1

T1 sequence (Q92633 whole entry): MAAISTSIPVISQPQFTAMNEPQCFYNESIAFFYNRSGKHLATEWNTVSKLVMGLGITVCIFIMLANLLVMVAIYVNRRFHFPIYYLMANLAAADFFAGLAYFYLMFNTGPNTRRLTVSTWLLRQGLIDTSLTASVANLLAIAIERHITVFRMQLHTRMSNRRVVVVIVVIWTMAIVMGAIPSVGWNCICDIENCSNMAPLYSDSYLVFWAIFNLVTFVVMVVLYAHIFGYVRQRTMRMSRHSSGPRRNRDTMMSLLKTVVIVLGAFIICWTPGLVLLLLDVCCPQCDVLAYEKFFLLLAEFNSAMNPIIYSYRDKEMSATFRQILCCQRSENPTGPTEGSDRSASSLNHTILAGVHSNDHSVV

Row | IC50 [1] [nM] | IC50 [nM] | SMILES
1 | 96 | – | Cc1nc(-c2nnn(C)c2Cn2nnc(CCC3CC3)n2)ccc1O[C@H]1CCC[C@H](C(=O)O)C1 [Example 296, (1S,3S)-3-{[6-(5-{[5-(2-cyclopropyl-ethyl)-2H-1,2,3,4-tetrazol-2-yl]methyl}-1-methyl-1H-1,2,3-triazol-4-yl)-2-methylpyridin-3-yl]oxy}cyclohexane-1-carboxylic acid]
2 | 221 | – | Cc1nc(-c2nnn(C)c2CNc2noc(C3CCCO3)n2)ccc1O[C@H]1CCC[C@H](C(=O)O)C1 (mixture of isomers) [Example 221, (1S,3S)-3-((2-methyl-6-(1-methyl-5-(((5-(tetrahydrofuran-2-yl)-1,2,4-oxadiazol-3-yl)amino)methyl)-1H-1,2,3-triazol-4-yl)pyridin-3-yl)oxy) cyclohexane-1-carboxylic acid]
3 | 28 | – | Cc1nc(-c2nnn(C)c2CNc2noc(C3CC(C)C3)n2)ccc1O[C@H]1CCC[C@H](C(=O)O)C1 (some centres unmarked) [Example 198]
4 | – | 1580 | Cc1nc(-c2nnn(C)c2Cn2nnc(N(Cc3ccccc3)Cc3ccccc3)n2)ccc1O[C@H]1CCC[C@H](C(=O)O)C1 [Example 367, (1S,3S)-3-((6-(5-((5-(dibenzyl-amino)-2H-tetrazol-2-yl)methyl)-1-methyl-1H-1,2,3-triazol-4-yl)-2-methylpyridin-3-yl)oxy)cyclo-hexane-1-carboxylic acid]
5 | 446 | – | Cc1nc(-c2nnn(C)c2Nc2nnc(CC3CC3)o2)ccc1O[C@H]1CCC[C@H](C(=O)O)C1 [Example 276, (1 S,3S)-3-((6-(5-((5-(Cyclopropylmethyl)-1,3,4-oxadiazol-2-yl)amino)-1-methyl-1H-1,2,3-triazol-4-yl)-2-methylpyridin-3-yl)oxy)cyclohexane-1-carboxylic acid, 2 TFA salt]
6 | 97 | – | CCCOc1nnn(Cc2c(-c3ccc(O[C@H]4CCC[C@H](C(=O)O)C4)c(C)n3)nnn2C)n1 [Example 340]
7 | 35 | – | Cc1nc(-c2nnn(C)c2Cn2ncc(C(C)C)n2)ccc1O[C@H]1CCC[C@H](C(=O)O)C1 [Example 272, (1S,3S)-3-((6-(5-((4-isopropyl-2H-1,2,3-triazol-2-yl)methyl)-1-methyl-1H-1,2,3-triazol-4-yl)-2-methylpyridin-3-yl)oxy)cyclohexane-1-carboxylic acid]
8 | 74 | – | Cc1nc(-c2nnn(C)c2CNc2noc(C3CC(F)C3)n2)ccc1O[C@H]1CCC[C@H](C(=O)O)C1 (some centres unmarked) [Example 189]
9 | 31 | – | Cc1nc(-c2nnn(C)c2CNc2noc(CCC3(C)CC3)n2)ccc1O[C@H]1CCC[C@H](C(=O)O)C1 [Example 187]
10 | 1180 | – | Cc1nc(-c2nnn(C)c2CNc2nsc(C3CC3)n2)ccc1O[C@H]1CCC[C@H](C(=O)O)C1 [Example 1, (1 S,3 S)-3-((6-(5-(((5-Cyclopropyl-1,2,4-thiadiazol-3-yl)amino)methyl)-1-methyl-1H-1,2,3-triazol-4-yl)-2-methylpyridin-3-yl)oxy)cyclohexane-1-carboxylic acid]
11 | 309 | – | CCCn1cnc(NCc2c(-c3ccc(O[C@H]4CCC[C@H](C(=O)O)C4)c(C)n3)nnn2C)n1 [Example 35]
12 | 125 | – | Cn1nnc(-c2ccc(O[C@H]3CCC[C@H](C(=O)O)C3)cn2)c1Cn1nnnc1CC1CC1 [Example 251, (1S,3S)-3-((6-(5-((5-(cyclopropylmethyl)-1H-tetrazol-1-yl)methyl)-1-methyl-1H-1,2,3-triazol-4-yl)pyridin-3-yl)oxy)cyclohexane-1-carboxylic acid]
13 | 3650 | – | Cc1nc(-c2nnn(C)c2CNc2nc(C)c(C)s2)ccc1O[C@H]1CCC[C@H](C(=O)O)C1 [Example 26]
14 | – | 1540 | CCc1nc(-c2nnn(C)c2Cn2cc(C(C)C)nn2)ccc1O[C@H]1CCC[C@H](C(=O)O)C1 [Example 371, (1S,3S)-3-((2-ethyl-6-(5-((4-isopropyl-1H-1,2,3-triazol-1-yl)methyl)-1-methyl-1H-1,2,3-triazol-4-yl)pyridin-3-yl)oxy)cyclohexane-1-carboxylic acid]
15 | 213 | – | Cc1nc(-c2nnn(C)c2Cn2ncnc2-c2ccccc2)ccc1O[C@H]1CCC[C@H](C(=O)O)C1 [Example 207, (1S,3S)-3-((2-Methyl-6-(1-methyl-5-((5-phenyl-1H-1,2,4-triazol-1-yl)methyl)-1H-1,2,3-triazol-4-yl)pyridin-3-yl)oxy)cyclohexane-1-carboxylic acid]
16 | 495 | – | Cc1nc(-c2nnn(C)c2CNc2nc(C(C)C)no2)ccc1O[C@H]1CCC[C@H](C(=O)O)C1 [Example 59]
17 | 67 | – | Cc1nc(-c2nnn(C)c2CNc2ncc(-c3ccccc3)s2)ccc1O[C@H]1CCC[C@H](C(=O)O)C1 [Example 16]
18 | – | 585 | CCCCCc1cn(Cc2c(-c3ccc(O[C@H]4CCC[C@H](C(=O)O)C4)c(CC)n3)nnn2C)nn1 [Example 375, (1S,3S)-3-((2-ethyl-6-(1-methyl-5-((4-pentyl-1H-1,2,3-triazol-1-yl)methyl)-1H-1,2,3-triazol-4-yl)pyridin-3-yl)oxy)cyclohexane-1-carboxylic acid]
19 | 15 | – | Cc1nc(-c2nnn(C)c2CNc2nc(-c3ccccc3)c(C)s2)ccc1O[C@H]1CCC[C@H](C(=O)O)C1 [Example 18]

Row | IC50 [1] [nM] | IC50 [nM] | SMILES
20 | 152 | – | Cc1nc(-c2nnn(C)c2Cn2nnnc2OCC2CC2)ccc1O[C@H]1CCC[C@H](C(=O)O)C1 [Example 351, (1S,3S)-3-{[6-(5-{[5-(cyclopropyl-methoxy)-1H-1,2,3,4-tetrazol-1-yl]methyl}-1-methyl-1H-1,2,3-triazol-4-yl)-2-methylpyridin-3-yl]oxy}cyclohexane-1-carboxylic acid]
21 | 114 | – | Cc1nc(-c2nnn(C)c2CNc2noc(C3CCOC3)n2)ccc1O[C@H]1CCC[C@H](C(=O)O)C1 (some centres unmarked) [Example 151]
22 | 81 | – | Cc1nc(-c2nnn(C)c2Cn2nnc(OC3CC3)n2)ccc1O[C@H]1CCC[C@@H](C(=O)O)C1 [Example 341, (3S)-3-[(6-{5-[(5-cyclopropoxy-2H-1,2,3,4-tetrazol-2-yl)methyl]-1-methyl-1H-1,2,3-triazol-4-yl}-2-methylpyridin-3-yl)oxy]cyclo-hexane-1-carboxylic acid]
23 | 15 | – | CCCCc1nc(NCc2c(-c3ccc(O[C@H]4CCC[C@H](C(=O)O)C4)c(C)n3)nnn2C)no1 [Example 66]
24 | 98 | – | Cc1nc(-c2nnn(C)c2COc2nc(C(C)C)ns2)ccc1O[C@H]1CCC[C@H](C(=O)O)C1 [Example 128]
25 | 28 | – | Cc1nc(-c2nnn(C)c2Cn2nnc(CC(C)C)n2)ccc1O[C@H]1CCC[C@H](C(=O)O)C1 [Example 327, (1S,3S)-3-((6-(5-((5-isobutyl-2H-tetrazol-2-yl)methyl)-1-methyl-1H-1,2,3-triazol-4-yl)-2-methylpyridin-3-yl)oxy)cyclohexane-1-carboxylic acid]
26 | 97 | – | CCCc1nnc(OCc2c(-c3ccc(O[C@H]4CCC[C@H](C(=O)O)C4)c(C)n3)nnn2C)s1 [Example 132]
27 | 95 | – | Cc1nc(-c2nnn(C)c2Cc2noc(C(C)C)n2)ccc1O[C@H]1CCC[C@H](C(=O)O)C1 [Example 230, (1S,3S)-3-((6-(5-((5-isopropyl-1,2,4-oxadiazol-3-yl)methyl)-1-methyl-1H-1,2,3-triazol-4-yl)-2-methylpyridin-3-yl)oxy)cyclohexane-1-carboxylic acid]
28 | 129 | 128 | Cc1nc(-c2nnn(C)c2Cc2nnn(CCC3CC3)n2)ccc1O[C@H]1CCC[C@H](C(=O)O)C1 [Example 400, (1S,3S)-3-{[6-(5-{[2-(2-cyclo-propylethyl)-2H-1,2,3,4-tetrazol-5-yl]methyl}-1-methyl-1H-1,2,3-triazol-4-yl)-2-methylpyridin-3-yl]oxy}cyclohexane-1-carboxylic acid]
29 | 41 | – | Cc1nc(-c2nnn(C)c2CNc2nnn(-c3ccc(Cl)cc3)n2)ccc1O[C@H]1CCC[C@H](C(=O)O)C1 [Example 384, (1S,3S)-3-((6-(5-(((2-(4-chloro-phenyl)-2H-tetrazol-5-yl)amino)methyl)-1-methyl-1H-1,2,3-triazol-4-yl)-2-methylpyridin-3-yl)oxy)cyclohexane-1-carboxylic acid]
30 | 137 | – | Cc1nc(-c2nnn(C)c2Cn2nc(C3CCC3)oc2=N)ccc1O[C@H]1CCC[C@H](C(=O)O)C1 [Example 46]
31 | 38 | – | Cc1nc(-c2nnn(C)c2CNc2nc(-c3ccccc3)ns2)ccc1O[C@H]1CCC[C@H](C(=O)O)C1 [Example 9]
32 | 49 | – | Cc1nc(-c2nnn(C)c2Cn2nnc(OC(C)C)n2)ccc1O[C@H]1CCC[C@H](C(=O)O)C1 [Example 346, (1S,3S)-3-{[2-methyl-6-(1-methyl-5-{[5-(propan-2-yloxy)-2H-1,2,3,4-tetrazol-2-yl]methyl}-1H-1,2,3-triazol-4-yl)pyridin-3-yl]oxy}cyclohexane-1-carboxylic acid]
33 | 221 | – | Cc1nc(-c2nnn(C)c2Cn2nc(Cc3ccccc3)oc2=N)ccc1O[C@H]1CCC[C@H](C(=O)O)C1 [Example 41, (1S,3S)-3-((6-(5-((5-Benzyl-2-imino-1,3,4-oxadiazol-3(2H)-yl)methyl)-1-methyl-1H-1,2,3-triazol-4-yl)-2-methylpyridin-3-yl)oxy)cyclohexane-1-carboxylic acid, bis TFA salt]
34 | 1120 | – | COc1nc(NCc2c(-c3ccc(O[C@H]4CCC[C@H](C(=O)O)C4)c(C)n3)nnn2C)ns1 [Example 4]
35 | 428 | – | Cc1nc(-c2nnn(C)c2Cn2nnnc2-c2cccc(F)c2)ccc1O[C@H]1CCC[C@H](C(=O)O)C1 [Example 321, (1S,3S)-3-((6-(5-((5-(3-fluoro-phenyl)-1H-tetrazol-1-yl)methyl)-1-methyl-1H-1,2,3-triazol-4-yl)-2-methylpyridin-3-yl)oxy)cyclo-hexane-1-carboxylic acid]
36 | 78 | – | CCCCc1cn(Cc2c(-c3ccc(O[C@H]4CCC[C@H](C(=O)O)C4)c(C#N)n3)nnn2C)nn1 [Example 90]
37 | 289 | – | Cc1nc(-c2nnn(C)c2Cc2nnc(C3CCCC3)o2)ccc1O[C@H]1CCC[C@H](C(=O)O)C1 [Example 75]
